From ChEMBL document CHEMBL1201862, “PubChem BioAssay data set” (2004)
The source made the active and inactive calls.

Assays:
[1] = target: SWI/SNF-related matrix-associated actin-dependent regulator of chromatin subfamily A member 2 (Homo sapiens, UniProt P51531); assay: Luminescence-based cell-based high throughput dose response assay to identify activators of the function of SWI/SNF related, matrix associated, actin dependent regulator of chromatin, subfamily a, member 2 (SMARCA2, BRM).; assay type: functional
Chain of SWI/SNF-related matrix-associated actin-dependent regulator of chromatin subfamily A member 2 (P51531 whole entry): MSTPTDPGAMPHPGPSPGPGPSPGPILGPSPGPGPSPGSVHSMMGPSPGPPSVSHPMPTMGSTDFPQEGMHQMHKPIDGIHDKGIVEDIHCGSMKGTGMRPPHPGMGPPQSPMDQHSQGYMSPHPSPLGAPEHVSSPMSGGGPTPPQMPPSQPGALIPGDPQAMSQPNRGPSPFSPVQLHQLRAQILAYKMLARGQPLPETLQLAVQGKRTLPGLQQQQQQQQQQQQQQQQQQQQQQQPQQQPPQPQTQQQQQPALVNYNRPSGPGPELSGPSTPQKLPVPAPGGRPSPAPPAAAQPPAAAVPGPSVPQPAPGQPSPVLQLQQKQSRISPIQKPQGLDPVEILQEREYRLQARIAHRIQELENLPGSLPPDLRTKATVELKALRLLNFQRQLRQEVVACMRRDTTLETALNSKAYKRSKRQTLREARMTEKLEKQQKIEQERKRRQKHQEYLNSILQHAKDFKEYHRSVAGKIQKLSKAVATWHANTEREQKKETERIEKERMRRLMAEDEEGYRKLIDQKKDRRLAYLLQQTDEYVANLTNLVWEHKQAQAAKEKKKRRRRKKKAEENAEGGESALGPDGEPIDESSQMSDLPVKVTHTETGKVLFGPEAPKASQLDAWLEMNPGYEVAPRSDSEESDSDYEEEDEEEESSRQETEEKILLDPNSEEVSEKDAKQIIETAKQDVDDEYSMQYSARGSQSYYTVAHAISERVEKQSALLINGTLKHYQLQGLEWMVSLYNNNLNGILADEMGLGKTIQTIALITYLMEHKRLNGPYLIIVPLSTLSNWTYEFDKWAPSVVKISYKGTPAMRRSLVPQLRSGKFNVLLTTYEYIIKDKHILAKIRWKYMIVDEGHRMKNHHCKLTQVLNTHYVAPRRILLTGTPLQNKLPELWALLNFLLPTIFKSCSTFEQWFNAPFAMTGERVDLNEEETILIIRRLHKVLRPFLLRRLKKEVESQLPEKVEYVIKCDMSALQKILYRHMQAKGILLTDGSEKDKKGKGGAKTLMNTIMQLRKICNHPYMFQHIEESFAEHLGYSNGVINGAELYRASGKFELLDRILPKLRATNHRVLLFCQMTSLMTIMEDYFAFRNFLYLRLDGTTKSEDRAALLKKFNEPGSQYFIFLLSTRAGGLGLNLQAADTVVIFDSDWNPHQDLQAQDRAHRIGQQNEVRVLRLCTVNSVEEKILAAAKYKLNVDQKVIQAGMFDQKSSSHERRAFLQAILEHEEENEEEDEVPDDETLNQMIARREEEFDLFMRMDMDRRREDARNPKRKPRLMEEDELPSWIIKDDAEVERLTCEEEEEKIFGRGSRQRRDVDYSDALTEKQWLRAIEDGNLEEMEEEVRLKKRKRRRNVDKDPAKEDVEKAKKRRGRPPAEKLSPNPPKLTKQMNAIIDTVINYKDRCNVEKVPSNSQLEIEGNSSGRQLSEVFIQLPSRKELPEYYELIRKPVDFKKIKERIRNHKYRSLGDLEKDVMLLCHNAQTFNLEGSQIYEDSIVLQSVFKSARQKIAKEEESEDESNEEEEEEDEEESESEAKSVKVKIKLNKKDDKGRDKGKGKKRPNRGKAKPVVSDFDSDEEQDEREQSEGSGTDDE

[2] = Counterscreen for activators of the function of SWI/SNF related, matrix associated, actin dependent regulator of chromatin, subfamily a, member 2 (SMARCA2, BRM): Luminescence-based cell-based high throughput dose response assay to identify non-selective compounds using the VP16 reporter assay.; assay type: functional
[3] = target: Protein Wnt-3a (Mus musculus, UniProt P27467); assay: Wnt3a-driven reporter signaling inhibition, dose response, selectivity assay for Gli-SUFU antagonist project, Wnt-LIGHT cells, luminescence (AID 651570); assay type: functional; details: read-out: IC50_Mean;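 also: Wnt-LIGHT reporter cells stimulated with conditioned medium from Wnt3a-producing cells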
Chain of Protein Wnt-3a (P27467 whole entry): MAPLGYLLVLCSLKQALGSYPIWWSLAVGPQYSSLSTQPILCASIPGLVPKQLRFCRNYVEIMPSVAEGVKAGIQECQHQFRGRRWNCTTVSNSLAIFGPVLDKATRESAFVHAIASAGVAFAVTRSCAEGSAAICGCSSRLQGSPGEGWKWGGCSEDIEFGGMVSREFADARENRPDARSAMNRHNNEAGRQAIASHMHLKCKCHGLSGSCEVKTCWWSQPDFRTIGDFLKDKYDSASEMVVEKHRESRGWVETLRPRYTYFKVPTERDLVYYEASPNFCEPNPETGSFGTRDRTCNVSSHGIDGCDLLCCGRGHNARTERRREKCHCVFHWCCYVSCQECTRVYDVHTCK

[4] = target: T1, Protein skinhead-1 (Caenorhabditis elegans, UniProt P34707); assay type: functional
T1 sequence (P34707 whole entry): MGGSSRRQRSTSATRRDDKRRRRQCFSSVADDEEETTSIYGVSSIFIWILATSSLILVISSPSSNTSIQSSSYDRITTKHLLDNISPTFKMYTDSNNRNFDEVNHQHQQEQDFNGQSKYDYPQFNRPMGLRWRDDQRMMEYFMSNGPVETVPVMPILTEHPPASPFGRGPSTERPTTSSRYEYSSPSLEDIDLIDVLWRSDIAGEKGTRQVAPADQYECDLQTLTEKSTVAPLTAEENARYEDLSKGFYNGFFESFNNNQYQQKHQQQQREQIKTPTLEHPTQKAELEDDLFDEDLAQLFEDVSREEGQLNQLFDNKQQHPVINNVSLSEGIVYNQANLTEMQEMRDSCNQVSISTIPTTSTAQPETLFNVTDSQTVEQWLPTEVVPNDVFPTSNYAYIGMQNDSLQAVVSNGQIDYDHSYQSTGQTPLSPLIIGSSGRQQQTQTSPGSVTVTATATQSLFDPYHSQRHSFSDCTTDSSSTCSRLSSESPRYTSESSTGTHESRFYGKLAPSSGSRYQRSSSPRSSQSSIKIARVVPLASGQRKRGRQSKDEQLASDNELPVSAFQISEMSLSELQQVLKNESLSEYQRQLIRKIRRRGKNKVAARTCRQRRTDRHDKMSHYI

[5] = tested on: Vero; assay: cells; assay type: functional, cell-based; details: Chlorocebus sabaeus
[6] = tested on: Vero; assay: cells; assay type: functional; details: Chlorocebus sabaeus
[7] = tested on: HEK293; assay: inhibitors of LMP1-driven NF-kB reporter, dose response, cell-based, HEK293, luciferase, cherry-pick (AID 588343); assay type: functional; details: Homo sapiens
[8] = target: Neurotensin receptor type 1 (Homo sapiens, UniProt P30989); assay type: functional;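 also: Image-based confirmatory dose-response assay measuring agonist activity at NTR1; NTR1-expressing U2OS osteosarcoma cells imaged for beta-arrestin GFP spot formation; agonist potency where compounds increase beta-arrestin recruitment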
Chain of Neurotensin receptor type 1 (P30989 whole entry, the tested form may be a part): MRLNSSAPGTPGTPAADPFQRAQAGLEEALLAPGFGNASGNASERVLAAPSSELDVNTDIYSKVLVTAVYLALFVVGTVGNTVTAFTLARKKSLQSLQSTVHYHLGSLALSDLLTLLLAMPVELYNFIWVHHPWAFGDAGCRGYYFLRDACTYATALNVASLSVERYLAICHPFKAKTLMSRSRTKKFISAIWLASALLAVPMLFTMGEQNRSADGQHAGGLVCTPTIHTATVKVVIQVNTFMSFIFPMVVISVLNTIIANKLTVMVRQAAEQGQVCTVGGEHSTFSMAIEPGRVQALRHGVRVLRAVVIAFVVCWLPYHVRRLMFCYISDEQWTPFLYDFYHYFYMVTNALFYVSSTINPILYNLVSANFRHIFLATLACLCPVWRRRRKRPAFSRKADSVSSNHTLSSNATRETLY

[9] = Fluorescence-based cell-based high throughput dose response assay for inhibitors of the interaction of nucleotide-binding oligomerization domain containing 2 (NOD2) and the receptor-interacting serine-threonine kinase 2 (RIPK2).; assay type: functional; details: Homo sapiens
[10] = target: Heat shock protein HSP 90-alpha (Homo sapiens, UniProt P07900); assay type: functional, organism-based
[11] = Shn3 3'UTR reporter inhibitors, dose response, cell-based, Clone20 osteoblasts, firefly luciferase, cherry-picked (AID 624132); assay type: functional;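 also: firefly luciferase luminescence from reporter carrying the Shn3 3'UTR in osteoblasts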
[12] = control 3'UTR Renilla luciferase suppression, dose response, counter-screen for Shn3 inhibitor project, cell-based, Clone20-Shn3RL, cherry-picked (AID 624133); assay type: functional
[13] = target: T2, Microphthalmia-associated transcription factor (Homo sapiens, UniProt O75030); assay: TRPM1 promoter luciferase signal decrease, dose response, MITF inhibitor project, cell-based, SK-MEL-5, cherry-picked, set 3 (AID 493073); assay type: functional
T2 sequence (O75030 whole entry): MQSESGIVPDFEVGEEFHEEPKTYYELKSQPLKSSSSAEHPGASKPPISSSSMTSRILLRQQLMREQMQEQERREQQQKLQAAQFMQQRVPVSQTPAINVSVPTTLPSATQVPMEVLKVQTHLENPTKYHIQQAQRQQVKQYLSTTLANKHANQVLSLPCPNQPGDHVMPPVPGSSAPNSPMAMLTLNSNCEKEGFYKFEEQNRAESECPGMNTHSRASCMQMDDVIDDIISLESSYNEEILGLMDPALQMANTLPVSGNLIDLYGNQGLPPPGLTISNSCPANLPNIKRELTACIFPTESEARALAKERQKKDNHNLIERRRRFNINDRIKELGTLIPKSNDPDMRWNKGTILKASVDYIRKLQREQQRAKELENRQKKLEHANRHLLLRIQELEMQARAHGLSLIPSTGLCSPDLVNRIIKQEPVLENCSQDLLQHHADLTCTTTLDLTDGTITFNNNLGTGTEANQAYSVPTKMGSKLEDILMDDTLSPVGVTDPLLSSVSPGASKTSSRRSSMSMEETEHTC

[14] = Luminescence Cell-Based Dose Confirmation HTS to Identify Activators of 5'UTR Stem-Loop Driven Alpha-Synuclein mRNA Translation in H4 Neuroglioblastoma Cells. [Related pubchem assays: 1829 (Project Summary), 1814 (Primary HTS)]; assay type: functional
[15] = cytotoxicity toward DRD oncogenic fibroblasts, dose response, cell-based, non-viral oncogenic, luminescence (AID 1934); assay type: functional; details: Homo sapiens
[16] = cells; assay type: functional, cell-based
[17] = Luminescence Cell-Based Dose Response HTS to Identify Activators of Luciferase Translation or Activity in H4 […] Cells. [Related pubchem assays: 1829 (Project Summary), 1814 (Primary HTS)]; assay type: functional
[18] = tested on: BJ; assay: cytotoxicity toward BJ-TERT-LT-ST fibroblasts, dose response, cell-based, RAS-independent, luminescence (AID 1935); assay type: functional; details: Homo sapiens;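 also: BJ fibroblasts immortalized with TERT plus LT and ST oncogenes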
[19] = tested on: H4; assay: Luminescence Cell-Based Dose Response HTS to Identify Activators of 5'UTR Stem-Loop Driven Prion Protein mRNA Translation in H4 Neuroglioblastoma Cells. [Related pubchem assays: 1829 (Project Summary), 1814 (Primary HTS)]; assay type: functional; details: Homo sapiens
[20] = tested on: BJ; assay: cytotoxicity toward BJ-TERT fibroblasts, dose response, cell-based, RAS-independent, luminescence (AID 1933); assay type: functional; details: Homo sapiens
[21] = cells; assay type: functional, cell-based; remark: listed apart in the source
[22] = tested on: BJ; assay: cells; assay type: functional, cell-based; details: Homo sapiens
[23] = HepG2 cell cytotoxicity, dose response, cytotoxicity control for Shn3 inhibitor project, CellTiter-Glo, cherry-picked (AID 624134); assay type: functional, cell-based
[24] = target: T3, Low molecular weight phosphotyrosine protein phosphatase (Homo sapiens, UniProt P24666); assay type: functional; details: read-out: IC50_Mean
T3 sequence (P24666 whole entry): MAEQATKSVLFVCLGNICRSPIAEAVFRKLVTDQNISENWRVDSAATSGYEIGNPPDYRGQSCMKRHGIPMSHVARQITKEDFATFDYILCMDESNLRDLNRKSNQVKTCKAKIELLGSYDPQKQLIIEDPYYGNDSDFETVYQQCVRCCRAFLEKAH

[25] = target: T3, Low molecular weight phosphotyrosine protein phosphatase; assay type: functional; details: read-out: IC50_Mean; remark: listed apart in the source
[26] = target: T4, High affinity choline transporter 1 (Homo sapiens, UniProt Q9GZV3); assay: CHT inhibitors, dose response, cell-based, 5-point CRC, membrane potential dye (AID 504840); assay type: functional
T4 sequence (Q9GZV3 whole entry): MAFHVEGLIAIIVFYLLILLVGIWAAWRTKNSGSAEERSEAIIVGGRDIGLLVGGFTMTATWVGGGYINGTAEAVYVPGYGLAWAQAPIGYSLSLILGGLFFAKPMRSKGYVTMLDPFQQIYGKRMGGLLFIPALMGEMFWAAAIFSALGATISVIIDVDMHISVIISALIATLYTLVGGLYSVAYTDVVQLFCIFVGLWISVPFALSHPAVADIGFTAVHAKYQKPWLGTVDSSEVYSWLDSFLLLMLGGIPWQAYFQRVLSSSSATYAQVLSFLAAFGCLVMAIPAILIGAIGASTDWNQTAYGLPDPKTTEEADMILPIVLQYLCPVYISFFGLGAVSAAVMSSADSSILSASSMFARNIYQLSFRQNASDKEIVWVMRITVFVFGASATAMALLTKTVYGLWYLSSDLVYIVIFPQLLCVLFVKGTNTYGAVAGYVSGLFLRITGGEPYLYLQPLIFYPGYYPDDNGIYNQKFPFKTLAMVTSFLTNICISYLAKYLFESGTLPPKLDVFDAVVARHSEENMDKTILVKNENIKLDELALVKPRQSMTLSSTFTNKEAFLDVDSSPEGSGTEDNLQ

[27] = HeLa cell cytotoxicity, dose response, cytotoxicity control for MgcRacGAP inhibitor project (AID 624300); assay type: functional
[28] = target: T5, Rac GTPase-activating protein 1 (Homo sapiens, UniProt Q9H0H5); assay: MgcRacGAP GTPase-activating activity inhibitors, confirmation, biochemical, ADP Hunter fluorescence, primary and confirmatory (AID 624330); assay type: functional
T5 sequence (Q9H0H5 whole entry): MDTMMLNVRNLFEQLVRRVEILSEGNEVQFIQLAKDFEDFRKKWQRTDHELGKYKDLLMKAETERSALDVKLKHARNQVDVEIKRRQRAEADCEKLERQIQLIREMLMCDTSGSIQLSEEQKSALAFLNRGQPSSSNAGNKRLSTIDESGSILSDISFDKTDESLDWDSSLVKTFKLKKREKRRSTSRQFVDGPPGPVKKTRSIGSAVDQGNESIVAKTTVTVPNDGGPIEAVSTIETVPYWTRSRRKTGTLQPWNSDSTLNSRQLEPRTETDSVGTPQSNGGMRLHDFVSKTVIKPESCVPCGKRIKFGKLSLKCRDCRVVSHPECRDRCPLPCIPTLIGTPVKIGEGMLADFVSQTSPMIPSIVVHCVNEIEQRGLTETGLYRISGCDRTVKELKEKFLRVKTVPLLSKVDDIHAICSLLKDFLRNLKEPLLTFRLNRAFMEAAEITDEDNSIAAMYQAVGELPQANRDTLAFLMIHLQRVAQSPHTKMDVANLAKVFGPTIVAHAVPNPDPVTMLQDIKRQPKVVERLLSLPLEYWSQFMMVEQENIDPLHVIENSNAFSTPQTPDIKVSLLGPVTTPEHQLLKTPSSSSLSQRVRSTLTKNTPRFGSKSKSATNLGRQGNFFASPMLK

[29] = tested on: INS1; assay: beta cell apoptosis inhibitors, cytokine rescue, dose response, luminescence, retest (AID 449756); assay type: functional, cell-based; details: Rattus norvegicus;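 also: cell death triggered by IL-1 beta plus TNF-alpha plus IFN-gamma mixture; protective hits raise ATP signal compared with cytokine alone wells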
[30] = NIH-3T3 fibroblast cytotoxicity, dose response, cytotoxicity control, cell-based, fluorescence, Alamar Blue, secondary assay (AID 2327); assay type: functional;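 also: NIH-3T3 mouse fibroblasts cultured with fluconazole at 8 µg/mL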
[31] = cells; assay type: functional
[32] = C. albicans growth with fluconazole, confirmation, fluorescence, retest (AID 2467); assay type: functional, cell-based
[33] = HEp-2 cell cytotoxicity, dose response, cytotoxicity control for RSV inhibitor project, HTS (AID 2410); assay type: functional; details: human respiratory syncytial virus
[34] = cells

COc1ccccc1/C=C/C(=O)OCC(=O)Nc1ccc(Cl)cn1
EC50 [1]: > 91.1 µM (inactive) | EC50 [2]: > 91.1 µM (inactive)

CN1/C(=C\C(=O)COC(=O)CNC(=O)c2ccc3ccccc3c2)C(C)(C)c2ccccc21
IC50 [3]: 50 µM (inactive) | IC50 [4]: > 100 µM (inactive)

CC1CC(C)C(=O)C(C(CC2CC(=O)NC(=O)C2)OC(=O)CC(=O)c2ccccc2)C1 (stereo not drawn)
IC50 [5]: > 25 µM (active) | CC50 [6]: 9.24 µM (active) | AC50 [7]: 42.3 µM (active)

COc1ccc(C(C[N+](=O)[O-])n2nc(C)cc2C)cc1 (stereo not drawn)
EC50 [8]: 10.1 µM (active) | IC50 [9]: 1.63 µM (active) | AC50 [10]: 1.94 µM (active)

CC1Sc2n(c3ccccc3[n+]2C)N=C1c1ccccc1 (stereo not drawn)
IC50 [3]: 3.6 µM (active)

COc1cc(/C=C/C(=O)c2ccc3c(c2)OCCO3)cc(Br)c1OCC(=O)N(C)C
AC50 [11]: 2.63 µM (active) | AC50 [12]: 8.52 µM (active) | AC50 [13]: 6.17 µM (active) | EC50 [14]: 5.83 µM (active) | EC50 [15]: 5.43 µM (inconclusive) | EC50 [16]: > 350 µM (not active) | EC50 [17]: 14.4 µM (active) | EC50 [18]: 5.55 µM (inconclusive) | EC50 [19]: > 120 µM (not active) | EC50 [20]: 4.75 µM (active) | EC50 [21]: > 350 µM (not active) | EC50 [22]: 3.4 µM (inconclusive) | AC50 [23]: 14.2 µM (active)

O=C(CCCN1C(=O)/C(=C\c2ccco2)SC1=S)Nc1ccc2ccccc2c1
IC50 [5]: 8.01 µM (active)

Cc1c(-c2ccccc2)c(-c2ccc(OCCN(C)C)cc2)n2ccccc12
IC50 [24]: 31.3 µM (inactive) | IC50 [25]: 4.82 µM (active)

Cc1ccc(C(=O)C[n+]2cc(Br)cc(Br)c2)cc1
IC50 [26]: 11.4 µM (active)

Cc1cc(C)c(OCCCCNCc2ccccc2)c(Cl)c1
CC50 [27]: 69.7 µM (active) | IC50 [28]: 91.9 µM (active)

Cc1ccc(NC(=O)NCc2ccc3[nH]c(C)cc3c2)cc1
IC50 [5]: > 25 µM (active)

O=C(NCCN1C(=O)S/C(=C\c2ccc(Cl)c([N+](=O)[O-])c2)C1=O)C1=COCCO1
IC50 [9]: 1.62 µM (active)

CNc1nc(NC)c2c[nH]nc2n1
IC50 [24]: 33 µM (inactive) | IC50 [25]: 9.16 µM (active)

COc1ccc(NS(=O)(=O)c2ccc(N3CCCCC3)c(N)c2)cc1
AC50 [29]: 3.22 µM (active) | AC50 [11]: 0.824 µM (active) | AC50 [12]: 1.51 µM (active) | IC50 [3]: 0.102 µM (active) | AC50 [23]: 4.01 µM (active)

O=C(NNC(=S)Nc1ccc(Cl)cc1)c1ccccc1OC(F)F
IC50 [26]: 13.8 µM (active)

O=[N+]([O-])c1ccc(Nc2ccccc2)c2nonc12
IC50 [26]: 11.8 µM (active) | EC50 [30]: > 150 µM (inconclusive) | IC50 [31]: 7.68 µM (active) | IC50 [4]: 41.5 µM (active) | EC50 [32]: < 0.03 µM (active)

Cc1cccc(C(=O)Nc2ccccc2SCC2CSc3nc4ccccc4c(=O)n32)c1 (stereo not drawn)
IC50 [5]: > 25 µM (active) | CC50 [33]: 43 µM (active) | IC50 [34]: 19.9 µM (active)
